Among the test systems are SK-MEL-5 melanoma; SF-539 CNS; SF-268 CNS; M14 melanoma; RPMI-8226 leukemia; HOP-62 NSCLC; SK-MEL-2 melanoma; LOX IMVI melanoma; MALME-3M melanoma.
Holding throughout (assay): inhibition of tumour cell growth, NCI panel, 48 h

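48-hour exposure; five concentrations; linearly interpolated endpoints. Definition used: TGI = concentration required for complete inhibition of growth.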

This is an account of results in PubChem BioAssay (NCI).

On to `c1ccc(C2N3CCCCC3[C@@H]3c4[nH]c5ccccc5c4CCN23)nc1` (stereo not given in full), for which the TGI in the assay on SK-MEL-5 melanoma, in the assay with SF-539 CNS, in the assay with SF-268 CNS, in the assay on M14 melanoma, in the assay with RPMI-8226 leukemia and with HOP-62 NSCLC was greater than 100 µM each time. This compound also returned a TGI with SK-MEL-2 melanoma greater than 100 µM.
As for `COC(=O)C12CC3CC(CC(C(=O)O)(C3)C1)C2`, the TGI in the assay on SK-MEL-5 melanoma, in the assay with SF-539 CNS, in the assay on SF-268 CNS, in the assay on M14 melanoma, in the assay on RPMI-8226 leukemia and in the assay with HOP-62 NSCLC was greater than 100 µM throughout. Further, the TGI in the assay on LOX IMVI melanoma was greater than 100 µM.
As to `O=C1c2ccccc2C(=O)C1(O)c1c[nH]c2ccccc12`, the TGI in the assay on SF-539 CNS, in the assay on SF-268 CNS, in the assay with M14 melanoma, in the assay with RPMI-8226 leukemia, in the assay with HOP-62 NSCLC and in the assay with MALME-3M melanoma was greater than 100 µM throughout. Besides, the TGI in the assay with LOX IMVI melanoma and in the assay on SK-MEL-2 melanoma was greater than 100 µM in each case.
Turning to `[N-]=[N+]=C1C(=O)NN=C1c1ccccc1`, the TGI in the assay with SF-539 CNS, with SF-268 CNS, in the assay with M14 melanoma, in the assay on RPMI-8226 leukemia, with MALME-3M melanoma and in the assay on LOX IMVI melanoma was greater than 100 µM each time. In addition, the TGI in the assay on SK-MEL-2 melanoma was greater than 100 µM.
Take `COC(=O)[C@@]12C(=O)C=CC(=O)C1C1C(=CC2C)OC2OC3(CCCCC3)OC21` (stereo not given in full): the TGI was determined as 33.6 µM in the assay on SK-MEL-5 melanoma; 48.6 µM with SF-268 CNS; 33.6 µM in the assay on M14 melanoma; 26.4 µM in the assay with RPMI-8226 leukemia; 35.8 µM in the assay on HOP-62 NSCLC; 37.8 µM in the assay on MALME-3M melanoma. Moreover, the TGI amounted to 42.8 µM in the assay on LOX IMVI melanoma and 35.5 µM in the assay on SK-MEL-2 melanoma.
With `CNC(=S)/N=C(\N)N(C)C`, the TGI with SK-MEL-5 melanoma, with SF-539 CNS, in the assay with SF-268 CNS, with M14 melanoma, with RPMI-8226 leukemia and with HOP-62 NSCLC was greater than 100 µM in each case. Besides, the TGI in the assay on MALME-3M melanoma and with LOX IMVI melanoma was greater than 100 µM in each case.
Regarding `Nc1ccccc1/C(O)=C1/CCOC1=O`, the TGI in the assay with SF-268 CNS, in the assay with M14 melanoma, in the assay with RPMI-8226 leukemia, in the assay on HOP-62 NSCLC, in the assay on MALME-3M melanoma and with SK-MEL-2 melanoma was greater than 100 µM in each case.
Consider `CN(C)CCC1(C2=CCCC2)CC/C(=C\c2ccc(Cl)cc2)C1=O` (stereo not given), for which the TGI in the assay on SK-MEL-5 melanoma is 4.07 µM; in the assay with SF-539 CNS, 25.7 µM; in the assay with SF-268 CNS, 26.1 µM; with M14 melanoma, 3.84 µM; with RPMI-8226 leukemia, 22.4 µM; with HOP-62 NSCLC, 32.7 µM. Moreover, the TGI was 15.4 µM with MALME-3M melanoma, 23.1 µM in the assay with LOX IMVI melanoma and 14.2 µM in the assay with SK-MEL-2 melanoma.
As for `CCOC(=O)/C(C)=C(/O)C(=O)OCC`, the TGI with SK-MEL-5 melanoma, with SF-539 CNS, in the assay with SF-268 CNS, in the assay on M14 melanoma, in the assay on RPMI-8226 leukemia and in the assay with HOP-62 NSCLC was greater than 100 µM throughout. The TGI in the assay on MALME-3M melanoma, with LOX IMVI melanoma and with SK-MEL-2 melanoma was greater than 100 µM each time.
Take `O=C(CC(=O)n1nc(-c2ccccc2)c(N=Nc2ccc(Cl)cc2)c1-c1ccccc1)Nc1ccc(Cl)cc1`: the TGI with SK-MEL-5 melanoma was greater than 100 µM; in the assay with SF-539 CNS, greater than 100 µM; in the assay with SF-268 CNS it was greater than 100 µM; with M14 melanoma, greater than 100 µM; with RPMI-8226 leukemia it was greater than 64.6 µM; in the assay with HOP-62 NSCLC it was greater than 100 µM. For the same compound, the TGI in the assay on MALME-3M melanoma was greater than 100 µM; with LOX IMVI melanoma it was greater than 56.9 µM; in the assay with SK-MEL-2 melanoma it was greater than 100 µM.
In the case of `CCOC(=O)CC(C)C1(C(=O)OCC)CCCCC1=O` (stereo not given), the TGI was greater than 100 µM in the assay with SK-MEL-5 melanoma; greater than 100 µM in the assay with SF-539 CNS; greater than 100 µM in the assay on SF-268 CNS; greater than 100 µM in the assay with M14 melanoma; 60.6 µM in the assay with RPMI-8226 leukemia; greater than 100 µM in the assay with HOP-62 NSCLC. The TGI in the assay on MALME-3M melanoma, in the assay on LOX IMVI melanoma and in the assay on SK-MEL-2 melanoma was greater than 100 µM in each case.
`CCCCNC1CCCCC[C@H]1O` (stereo not given in full): the TGI in the assay on SK-MEL-5 melanoma, in the assay on SF-539 CNS, in the assay with SF-268 CNS, in the assay with M14 melanoma, with RPMI-8226 leukemia and in the assay on HOP-62 NSCLC was greater than 100 µM each time. The TGI with LOX IMVI melanoma and with SK-MEL-2 melanoma was greater than 100 µM throughout.
With `COc1cc(/C=C/c2ccc(OC)c(O)c2)cc(OC)c1`, the TGI in the assay on SK-MEL-5 melanoma amounted to 14.4 µM; in the assay on SF-539 CNS it was 8.47 µM; in the assay with SF-268 CNS, 80.5 µM; in the assay on M14 melanoma, 12.8 µM; in the assay on RPMI-8226 leukemia, 9.92 µM; in the assay with HOP-62 NSCLC it was 15.4 µM. Moreover, the TGI is 38 µM with MALME-3M melanoma, 34.2 µM in the assay on LOX IMVI melanoma and 29.8 µM in the assay on SK-MEL-2 melanoma.
Regarding `COC(=O)C(Cc1nc2ccccc2[nH]c1=O)C(NO)C(=O)Nc1c(Cl)cc([N+](=O)[O-])cc1Cl` (stereo not given), the TGI with SK-MEL-5 melanoma was 46.4 µM; with SF-539 CNS it was 56.5 µM; in the assay with SF-268 CNS, greater than 100 µM; in the assay on M14 melanoma, greater than 100 µM; with RPMI-8226 leukemia, greater than 100 µM; in the assay on HOP-62 NSCLC it was greater than 100 µM. Besides, the TGI with MALME-3M melanoma was greater than 100 µM; with SK-MEL-2 melanoma it was 82.2 µM.
As for `Cc1nnc(NS(=O)(=O)c2ccc(N=Nc3cc(N=Nc4ccc(S(=O)(=O)Nc5nnc(C)s5)cc4)c4c(NC(=O)C(Cl)Cl)cccc4c3OC(=O)C(Cl)Cl)cc2)s1` (tested in a mixture with another compound), the TGI in the assay on SK-MEL-5 melanoma was 75.8 µM; with SF-539 CNS it was 43 µM; in the assay with SF-268 CNS it was greater than 100 µM; in the assay with M14 melanoma, 73.4 µM; in the assay with RPMI-8226 leukemia, 21 µM; in the assay on HOP-62 NSCLC, greater than 100 µM. Besides, the TGI in the assay with MALME-3M melanoma is 65.3 µM; with LOX IMVI melanoma it was greater than 100 µM; with SK-MEL-2 melanoma it was 64.1 µM.
Turning to `COc1ccc(CN2CC(C)(C)C2=O)c(OC)c1`, the TGI in the assay with SK-MEL-5 melanoma, with SF-539 CNS, in the assay with SF-268 CNS, with M14 melanoma, in the assay on RPMI-8226 leukemia and in the assay with HOP-62 NSCLC was greater than 100 µM throughout. The TGI in the assay on MALME-3M melanoma, in the assay with LOX IMVI melanoma and with SK-MEL-2 melanoma was greater than 100 µM throughout.
